Results: patent US8034561B2, “HIN-1, a tumor suppressor gene” (Dana-Farber Cancer Institute, Inc., priority 2001, dated 2011)

Key:
hHIN-1 promoter region = test: Extent of hHIN-1 promoter methylation by sequence analysis of bisulfite treated genomic DNA; assay type: cell-based, human; details: ZR-75-1 cells treated with 25 μM 5aza-C vs not treated, bisulfite sequencing
Text: hHIN-1 methylation, loss of heterozygocity and mutation analysis. Searching the draft of the human genome sequence with the hHIN-1 cDNA sequence identified a genomic clone (CTB-36B8) containing the entire hHIN-1 gene, the proximal promoter region of which contained an apparent CpG island. To determine the location of methylated cytosines, genomic DNA was extracted from the cells, bisulfite treated and purified as previously described [Herman et al. (1998) Proc. Natl. Acad. Sci. USA 95:6870-6875]. PCR amplification was performed using the following primers designed to amplify the coding strand (nucleotides −345 to +72) of bisulfite treated DNA: forward primer-5′-[…]-3′ (SEQ ID NO:9) and reverse primer-5′-[…]-3′ (SEQ ID NO:10). […] PCR amplifications were performed as described above; PCR fragments were analyzed on 3% agarose gels.
(§1) To test for the consequence of promoter methylation on hHIN-1 expression, the effect of a DNA methyltransferase inhibitor (5-aza-2′-deoxycytidine; “5aza-C”) on hHIN-1 mRNA levels was analyzed. […] The expression of hHIN-1 mRNA was determined by RT-PCR analysis, while the extent of promoter methylation was evaluated by sequence analysis of bisulfite treated genomic DNA.

[1] = tested on: breast cancer cell lines with no detectable expression of hHIN-1; test: Effect of DNA methyltransferase inhibitor on hHIN-1 mRNA levels (RT-PCR); assay type: cell-based, human; details: six breast cancer cell lines, 25 μM 5aza-C for three to ten days
Text: Cell lines and tissue. BT-20, BT-474, BT-549, Hs578T, MCF-7, MDA-MB-231, MDA-MB-468, MDA-MB-435S, SK-BR-3, T47D, UACC-812, UACC-893, and ZR-75-1 breast cancer cell lines were obtained from the American Type Culture Collection (ATCC; Manassas, Va.). SUM-44, SUM-52, SUM-102, SUM149, SUM-159, SUM-185, SUM-190, SUM-225, SUM-229, and SUM-1315 cell lines were a generous gift of Dr. Steve Ethier (University of Michigan Medical Center). The HCC1937 BRCA1 minus cell line was obtained from Dr. Gail Tomlinson (University of Texas Southwestern Medical Center). The 21MT1, 21MT2, 21NT, and 21PT cell lines were obtained from Dr. Arthur Pardee (Dana-Farber Cancer Institute). Cells were grown in media recommended by the ATCC or by the establishing investigators. However, 48 hours prior to RNA extraction, all cell lines were switched to DMEM/F12 medium supplemented with 5% FBS in order to minimize gene expression differences due to culture conditions. […]
as §1

[2] = tested on: primary human bronchial epithelial cells; test: Retinoic acid-induced mucinous differentiation, RT-PCR of hHIN-1, MUC2 and Tgase I mRNA; assay type: cell-based; details: 1 mM all-trans retinoic acid, 1 to 9 days
Procedure: Primary cultures of human bronchial epithelial cells were purchased from Clonetics (Walkersville, Md.) and were cultured in the presence or absence of 1 mM all-trans retinoic acid essentially as previously described [Koo et al. (1999) Am. J. Respir. Cell Mol. Biol. 20:43-52].
To test this hypothesis, the expression of hHIN-1 mRNA by RT-PCR during retinoic acid-induced mucinous differentiation of primary human bronchial epithelial cells was analyzed (FIG. 13). Primary human bronchial epithelial cells underwent squamous epithelial differentiation and expressed squamous cell markers such as transglutaminase I (Tgase I) in the absence of all-trans retinoic acid (FIG. 13). […] J. Respir. Cell Mol. Biol. 20:43-52]. […] Such expression kinetics are consistent with a role for HIN-1 as an inducer of this process.

BT549 cells = test: Colony assay after transfection with pCEP4 expression constructs; assay type: cell-based, human; details: stable transfectants selected with hygromycin for 2 weeks, crystal violet staining, compared to control pCEP4
Text: Generation of hHIN-1 mammalian expression constructs and recombinant adenoviruses. […] For the generation of a recombinant adenovirus the hHIN-1 cDNA was PCR amplified and subcloned into the Kpn I-Xho I site of the pAd-Track-CMV adenoviral vector followed by recombination and adenovirus generation using the Ad-Easy™(Quantum Biotechnologies, Montreal, Canada) system [He et al. (1998) Proc. Natl. Acad. Sci. USA 95:2509-2514].
Colony assays, cell cycle analysis and western blot analysis. For colony assay experiments, cells in 100 mm plates were transfected with a mix of 42 μl of FuGene6 (Roche) and 21 μg of the indicated plasmid. 24 hours after transfection, 84% of the cells were plated into 2 T25 tissue culture flasks in medium without a selection drug. Twenty-four hours later the medium was replaced with selection medium containing hygromycin. Colonies were allowed to grow for 2 weeks after which they were visualized by crystal violet staining.
In order to investigate the effect of constitutive hHIN-1 expression on mammary cell growth, a mammalian expression construct containing hHIN-1 polypeptide encoding cDNA (pCEP4-HIN-1) was transfected into various breast cancer cell lines. Stable transfectants were selected in the presence of hygromycin for 2 weeks.

Nc1ncn([C@H]2C[C@H](O)[C@@H](CO)O2)c(=O)n1 [5aza-C, 5-aza-2′-deoxycytidine]
extent of hHIN-1 promoter methylation (hHIN-1 promoter region): decrease in the extent of promoter methylation | expression of hHIN-1 mRNA [1]: re-expression of hHIN-1 mRNA in all six cell lines

CC1=C(/C=C/C(C)=C/C=C/C(C)=C/C(=O)O)C(C)(C)CCC1 [retinoic acid, all-trans retinoic acid]
expression of hHIN-1 mRNA ([2]; RT-PCR, following retinoic acid treatment): correlated with the loss of a squamous marker (Tgase I) and preceded the induction of a marker for mucinous differentiation (MUC2) | differentiation phenotype (MUC2 expression) ([2]; air-interface culture): differentiated into mucinous cells

B1: hHIN-1: hHIN-1 polypeptide (SEQ ID NO:1), 104 amino acids, expressed from the pCEP4-HIN-1 mammalian expression construct (protein, listed as Homo sapiens)
chain: MKLAALLGLCVALSCSSARAFLVGSAKPVAQPVAALESAAEAGAGTLANPLGTLNPLKLLLSSLGIPVNHLIEGSQKCVAELGPQAVGAVKALKALLGALTVFG
colony numbers / cell growth (BT549 cells): dramatic decrease in colony numbers
